Source: ChEMBL document CHEMBL1764978, “Cysteine mapping in conformationally distinct kinase nucleotide binding sites: application to the design of selective covalent inhibitors” (J Med Chem, 2011)
Blank lines part the entries; values can stand above or below the molecule they belong to.

Tests used:
[1] = molecular target: Tyrosine-protein kinase ABL1 (Homo sapiens, UniProt P00519); assay: Inhibition of human wild type ABL1 assessed as [gamma33P]ATP incorporation into poly-Ala-Glu-Lys-Tyr after 60 mins by microplate scintillation counting
[2] = molecular target: T1, Mast/stem cell growth factor receptor Kit (Homo sapiens, UniProt P10721); assay: Inhibition of human wild type KIT assessed as [gamma33P]ATP incorporation into polyGluTyr after 60 mins by microplate scintillation counting
[3] = molecular target: Tyrosine-protein kinase Blk (Homo sapiens) (UniProt P51451); assay: Binding affinity to human BLK serine residue assessed as residual binding at 10 uM by site dependent competitive binding assay
[4] = molecular target: Ephrin type-A receptor 8 (Homo sapiens) (UniProt P29322); assay: Binding affinity to human EPHA8 tyrosine residue assessed as residual binding at 10 uM by site dependent competitive binding assay
[5] = molecular target: Cyclin-G-associated kinase (Homo sapiens) (UniProt O14976); assay: Binding affinity to human GAK isoleucine residue assessed as residual binding at 10 uM by site dependent competitive binding assay
[6] = molecular target: Serine/threonine-protein kinase MARK2 (Homo sapiens) (UniProt Q7KZI7); assay: Binding affinity to human Mark2 isoleucine residue assessed as residual binding at 10 uM by site dependent competitive binding assay
[7] = molecular target: Serine/threonine-protein kinase 17A (Homo sapiens) (UniProt Q9UEE5); assay: Binding affinity to human DRAK1 valine residue assessed as residual binding at 10 uM by site dependent competitive binding assay
[8] = molecular target: Tyrosine-protein kinase Fer (Homo sapiens) (UniProt P16591); assay: Binding affinity to human Fer assessed as residual binding at 10 uM by site dependent competitive binding assay
[9] = molecular target: Fibroblast growth factor receptor 3 (Homo sapiens) (UniProt P22607); assay: Binding affinity to human Fgfr3 assessed as residual binding at 10 uM by site dependent competitive binding assay
[10] = molecular target: Fibroblast growth factor receptor 4 (Homo sapiens) (UniProt P22455); assay: Binding affinity to human Fgfr4 assessed as residual binding at 10 uM by site dependent competitive binding assay
[11] = molecular target: Vascular endothelial growth factor receptor 1 (Homo sapiens) (UniProt P17948); assay: Binding affinity to human Flt1 assessed as residual binding at 10 uM by site dependent competitive binding assay
[12] = molecular target: Vascular endothelial growth factor receptor 3 (Homo sapiens) (UniProt P35916); assay: Binding affinity to human Flt4 assessed as residual binding at 10 uM by site dependent competitive binding assay
[13] = molecular target: Mitogen-activated protein kinase 8 (Homo sapiens) (UniProt P45983); assay: Binding affinity to human Jnk1 isoleucine residue assessed as residual binding at 1 uM by site dependent competitive binding assay
[14] = molecular target: Mitogen-activated protein kinase 9 (Homo sapiens) (UniProt P45984); assay: Binding affinity to human Jnk2 isoleucine residue assessed as residual binding at 1 uM by site dependent competitive binding assay
[15] = molecular target: Mitogen-activated protein kinase 10 (Homo sapiens) (UniProt P53779); assay: Binding affinity to human Jnk3 isoleucine residue assessed as residual binding at 1 uM by site dependent competitive binding assay
[16] = molecular target: T1, Mast/stem cell growth factor receptor Kit; assay: Binding affinity to human Kit cysteine residue assessed as residual binding at 1 uM by site dependent competitive binding assay
[17] = test system: Mast/stem cell growth factor receptor Kit (Homo sapiens), P10721 [V559D]; assay: Binding affinity to human Kit V559D mutant cysteine residue assessed as residual binding at 1 uM by site dependent competitive binding assay
[18] = test system: Mast/stem cell growth factor receptor Kit (Homo sapiens), P10721 [V559D,V654A]; assay: Binding affinity to human Kit V559D/V654A mutant cysteine residue assessed as residual binding at 1 uM by site dependent competitive binding assay
[19] = molecular target: Tyrosine-protein kinase Lck (Homo sapiens) (UniProt P06239); assay: Binding affinity to human LCK tyrosine residue assessed as residual binding at 1 uM by site dependent competitive binding assay
[20] = molecular target: Tyrosine-protein kinase Lyn (Homo sapiens) (UniProt P07948); assay: Binding affinity to human LYN tyrosine residue assessed as residual binding at 1 uM by site dependent competitive binding assay
[21] = molecular target: Serine/threonine-protein kinase MARK2 (Homo sapiens) (UniProt Q7KZI7); assay: Binding affinity to human Mark2 isoleucine residue assessed as residual binding at 1 uM by site dependent competitive binding assay
[22] = molecular target: Serine/threonine-protein kinase 3 (Homo sapiens) (UniProt Q13188); assay: Binding affinity to human Mst2 […] residue assessed as residual binding at 1 uM by site dependent competitive binding assay
[23] = molecular target: T2, Platelet-derived growth factor receptor alpha (Homo sapiens, UniProt P16234); assay: Binding affinity to human PDGFRalpha cysteine residue assessed as residual binding at 1 uM by site dependent competitive binding assay
[24] = molecular target: Platelet-derived growth factor receptor beta (Homo sapiens) (UniProt P09619); assay: Binding affinity to human PDGFRbeta cysteine residue assessed as residual binding at 1 uM by site dependent competitive binding assay
[25] = molecular target: T2, Platelet-derived growth factor receptor alpha; assay: Inhibition of human wild type PDGFRalpha assessed as [gamma33P]ATP incorporation into poly-Ala-Glu-Lys-Tyr after 60 mins by microplate scintillation counting
[26] = molecular target: Cyclin-dependent kinase-like 1 (Homo sapiens) (UniProt Q00532); assay: Binding affinity to human CDKL1 assessed as residual binding at 1 uM by site dependent competitive binding assay
[27] = molecular target: Macrophage colony-stimulating factor 1 receptor (Homo sapiens) (UniProt P07333); assay: Binding affinity to human CSF1R assessed as residual binding at 1 uM by site dependent competitive binding assay
[28] = molecular target: Tyrosine-protein kinase Fer (Homo sapiens) (UniProt P16591); assay: Binding affinity to human Fer assessed as residual binding at 1 uM by site dependent competitive binding assay
[29] = molecular target: Tyrosine-protein kinase Fes/Fps (Homo sapiens) (UniProt P07332); assay: Binding affinity to human Fes assessed as residual binding at 1 uM by site dependent competitive binding assay
[30] = molecular target: Fibroblast growth factor receptor 1 (Homo sapiens) (UniProt P11362); assay: Binding affinity to human Fgfr1 assessed as residual binding at 1 uM by site dependent competitive binding assay
[31] = molecular target: Fibroblast growth factor receptor 2 (Homo sapiens) (UniProt P21802); assay: Binding affinity to human Fgfr2 assessed as residual binding at 1 uM by site dependent competitive binding assay
[32] = molecular target: Fibroblast growth factor receptor 3 (Homo sapiens) (UniProt P22607); assay: Binding affinity to human Fgfr3 assessed as residual binding at 1 uM by site dependent competitive binding assay
[33] = molecular target: Fibroblast growth factor receptor 4 (Homo sapiens) (UniProt P22455); assay: Binding affinity to human Fgfr4 assessed as residual binding at 1 uM by site dependent competitive binding assay
[34] = molecular target: Vascular endothelial growth factor receptor 1 (Homo sapiens) (UniProt P17948); assay: Binding affinity to human Flt1 assessed as residual binding at 1 uM by site dependent competitive binding assay
[35] = molecular target: Receptor-type tyrosine-protein kinase FLT3 (Homo sapiens) (UniProt P36888); assay: Binding affinity to human Flt3 assessed as residual binding at 1 uM by site dependent competitive binding assay
[36] = molecular target: Vascular endothelial growth factor receptor 3 (Homo sapiens) (UniProt P35916); assay: Binding affinity to human Flt4 assessed as residual binding at 1 uM by site dependent competitive binding assay
[37] = molecular target: Tyrosine-protein kinase JAK3 (Homo sapiens) (UniProt P52333); assay: Binding affinity to human Jak3 domain 1 assessed as residual binding at 1 uM by site dependent competitive binding assay
[38] = molecular target: T1, Mast/stem cell growth factor receptor Kit; assay: Binding affinity to human Kit assessed as residual binding at 1 uM by site dependent competitive binding assay
[39] = molecular target: T2, Platelet-derived growth factor receptor alpha; assay: Binding affinity to human PDGFRalpha assessed as residual binding at 1 uM by site dependent competitive binding assay
[40] = molecular target: Platelet-derived growth factor receptor beta (Homo sapiens) (UniProt P09619); assay: Binding affinity to human PDGFRbeta assessed as residual binding at 1 uM by site dependent competitive binding assay
[41] = molecular target: Vascular endothelial growth factor receptor 2 (Homo sapiens) (UniProt P35968); assay: Binding affinity to human Vegfr2 assessed as residual binding at 1 uM by site dependent competitive binding assay
[42] = molecular target: Tyrosine-protein kinase ABL2 (Homo sapiens) (UniProt P42684); assay: Binding affinity to human ABL2 phenylalanine residue assessed as residual binding at 1 uM by site dependent competitive binding assay
[43] = molecular target: Tyrosine-protein kinase Blk (Homo sapiens) (UniProt P51451); assay: Binding affinity to human BLK serine residue assessed as residual binding at 1 uM by site dependent competitive binding assay
[44] = test system: Serine/threonine-protein kinase B-raf (Homo sapiens), P15056 [V600E]; assay: Binding affinity to human BRAF V600E mutant isoleucine residue assessed as residual binding at 1 uM by site dependent competitive binding assay
[45] = molecular target: Calcium/calmodulin-dependent protein kinase kinase 1 (Homo sapiens) (UniProt Q8N5S9); assay: Binding affinity to human CAMKK1 isoleucine residue assessed as residual binding at 1 uM by site dependent competitive binding assay
[46] = molecular target: Calcium/calmodulin-dependent protein kinase kinase 2 (Homo sapiens) (UniProt Q96RR4); assay: Binding affinity to human CAMKK2 isoleucine residue assessed as residual binding at 1 uM by site dependent competitive binding assay
[47] = molecular target: Macrophage colony-stimulating factor 1 receptor (Homo sapiens) (UniProt P07333); assay: Binding affinity to human CSF1R cysteine residue assessed as residual binding at 1 uM by site dependent competitive binding assay
[48] = molecular target: Epithelial discoidin domain-containing receptor 1 (Homo sapiens) (UniProt Q08345); assay: Binding affinity to human DDR1 phenylalanine residue assessed as residual binding at 1 uM by site dependent competitive binding assay
[49] = molecular target: Discoidin domain-containing receptor 2 (Homo sapiens) (UniProt Q16832); assay: Binding affinity to human DDR2 phenylalanine residue assessed as residual binding at 1 uM by site dependent competitive binding assay
[50] = molecular target: Serine/threonine-protein kinase 17A (Homo sapiens) (UniProt Q9UEE5); assay: Binding affinity to human DRAK1 valine residue assessed as residual binding at 1 uM by site dependent competitive binding assay
[51] = molecular target: Ephrin type-A receptor 8 (Homo sapiens) (UniProt P29322); assay: Binding affinity to human EPHA8 tyrosine residue assessed as residual binding at 1 uM by site dependent competitive binding assay
[52] = molecular target: Cyclin-G-associated kinase (Homo sapiens) (UniProt O14976); assay: Binding affinity to human GAK isoleucine residue assessed as residual binding at 1 uM by site dependent competitive binding assay
[53] = molecular target: Protein-tyrosine kinase 2-beta (Homo sapiens) (UniProt Q14289); assay: Binding affinity to human Pyk2 assessed as residual binding at 1 uM by site dependent competitive binding assay

Tyrosine-protein kinase ABL1, sequence (P00519 whole entry): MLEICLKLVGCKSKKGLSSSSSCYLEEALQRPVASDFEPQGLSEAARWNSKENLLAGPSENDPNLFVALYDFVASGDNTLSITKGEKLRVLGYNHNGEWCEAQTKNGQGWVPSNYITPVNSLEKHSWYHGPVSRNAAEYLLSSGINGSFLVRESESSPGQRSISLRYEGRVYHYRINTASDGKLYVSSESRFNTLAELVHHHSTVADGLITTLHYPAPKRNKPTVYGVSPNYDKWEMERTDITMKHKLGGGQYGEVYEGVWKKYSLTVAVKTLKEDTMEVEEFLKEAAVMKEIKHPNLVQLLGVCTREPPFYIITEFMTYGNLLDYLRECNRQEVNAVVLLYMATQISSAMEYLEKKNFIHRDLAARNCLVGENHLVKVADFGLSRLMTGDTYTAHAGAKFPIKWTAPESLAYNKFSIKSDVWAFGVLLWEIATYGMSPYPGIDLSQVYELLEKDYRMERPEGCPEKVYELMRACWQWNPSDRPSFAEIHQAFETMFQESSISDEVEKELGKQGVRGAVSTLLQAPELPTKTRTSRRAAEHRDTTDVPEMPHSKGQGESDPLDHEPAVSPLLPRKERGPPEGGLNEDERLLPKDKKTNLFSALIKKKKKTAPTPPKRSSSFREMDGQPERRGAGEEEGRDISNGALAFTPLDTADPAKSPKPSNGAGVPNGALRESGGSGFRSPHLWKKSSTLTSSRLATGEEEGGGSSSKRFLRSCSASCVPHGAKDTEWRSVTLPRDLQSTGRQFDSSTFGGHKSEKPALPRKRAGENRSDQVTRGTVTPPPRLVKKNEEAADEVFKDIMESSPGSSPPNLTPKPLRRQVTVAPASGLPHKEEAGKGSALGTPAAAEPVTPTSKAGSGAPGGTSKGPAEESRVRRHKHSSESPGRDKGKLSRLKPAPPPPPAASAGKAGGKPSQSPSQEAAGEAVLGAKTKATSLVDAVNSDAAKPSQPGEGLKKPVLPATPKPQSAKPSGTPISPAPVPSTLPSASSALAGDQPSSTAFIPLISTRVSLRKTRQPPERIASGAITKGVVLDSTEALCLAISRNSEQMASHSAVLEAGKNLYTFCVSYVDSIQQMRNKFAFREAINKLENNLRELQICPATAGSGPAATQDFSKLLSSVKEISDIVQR
T2 sequence (P16234 whole entry): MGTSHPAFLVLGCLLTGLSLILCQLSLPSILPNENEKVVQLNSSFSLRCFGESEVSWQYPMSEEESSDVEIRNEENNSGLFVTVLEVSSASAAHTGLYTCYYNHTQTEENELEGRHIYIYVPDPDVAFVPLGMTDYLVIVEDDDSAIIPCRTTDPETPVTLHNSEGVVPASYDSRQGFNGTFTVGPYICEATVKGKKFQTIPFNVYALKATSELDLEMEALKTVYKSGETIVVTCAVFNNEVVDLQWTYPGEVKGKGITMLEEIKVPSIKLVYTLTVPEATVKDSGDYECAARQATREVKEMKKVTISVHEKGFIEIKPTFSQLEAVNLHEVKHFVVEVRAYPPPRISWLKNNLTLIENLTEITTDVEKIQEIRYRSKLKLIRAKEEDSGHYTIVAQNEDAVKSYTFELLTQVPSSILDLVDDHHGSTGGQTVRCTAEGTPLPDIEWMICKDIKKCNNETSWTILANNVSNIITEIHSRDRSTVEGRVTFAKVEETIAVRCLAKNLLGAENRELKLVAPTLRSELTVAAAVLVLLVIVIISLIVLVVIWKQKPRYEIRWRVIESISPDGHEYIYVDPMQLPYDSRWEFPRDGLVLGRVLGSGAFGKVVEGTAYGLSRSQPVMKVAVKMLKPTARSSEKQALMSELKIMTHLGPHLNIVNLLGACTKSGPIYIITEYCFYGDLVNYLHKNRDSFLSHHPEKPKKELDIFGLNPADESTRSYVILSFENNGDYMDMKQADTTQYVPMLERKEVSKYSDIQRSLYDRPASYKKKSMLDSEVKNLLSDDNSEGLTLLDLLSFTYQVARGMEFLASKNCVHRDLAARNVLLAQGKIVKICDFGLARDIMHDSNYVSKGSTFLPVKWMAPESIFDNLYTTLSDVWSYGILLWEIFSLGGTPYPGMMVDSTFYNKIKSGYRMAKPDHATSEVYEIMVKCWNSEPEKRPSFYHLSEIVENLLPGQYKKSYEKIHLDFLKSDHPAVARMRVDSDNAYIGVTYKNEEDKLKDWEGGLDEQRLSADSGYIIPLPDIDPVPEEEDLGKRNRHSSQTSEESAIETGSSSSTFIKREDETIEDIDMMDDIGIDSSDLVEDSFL
T1 sequence (P10721 whole entry): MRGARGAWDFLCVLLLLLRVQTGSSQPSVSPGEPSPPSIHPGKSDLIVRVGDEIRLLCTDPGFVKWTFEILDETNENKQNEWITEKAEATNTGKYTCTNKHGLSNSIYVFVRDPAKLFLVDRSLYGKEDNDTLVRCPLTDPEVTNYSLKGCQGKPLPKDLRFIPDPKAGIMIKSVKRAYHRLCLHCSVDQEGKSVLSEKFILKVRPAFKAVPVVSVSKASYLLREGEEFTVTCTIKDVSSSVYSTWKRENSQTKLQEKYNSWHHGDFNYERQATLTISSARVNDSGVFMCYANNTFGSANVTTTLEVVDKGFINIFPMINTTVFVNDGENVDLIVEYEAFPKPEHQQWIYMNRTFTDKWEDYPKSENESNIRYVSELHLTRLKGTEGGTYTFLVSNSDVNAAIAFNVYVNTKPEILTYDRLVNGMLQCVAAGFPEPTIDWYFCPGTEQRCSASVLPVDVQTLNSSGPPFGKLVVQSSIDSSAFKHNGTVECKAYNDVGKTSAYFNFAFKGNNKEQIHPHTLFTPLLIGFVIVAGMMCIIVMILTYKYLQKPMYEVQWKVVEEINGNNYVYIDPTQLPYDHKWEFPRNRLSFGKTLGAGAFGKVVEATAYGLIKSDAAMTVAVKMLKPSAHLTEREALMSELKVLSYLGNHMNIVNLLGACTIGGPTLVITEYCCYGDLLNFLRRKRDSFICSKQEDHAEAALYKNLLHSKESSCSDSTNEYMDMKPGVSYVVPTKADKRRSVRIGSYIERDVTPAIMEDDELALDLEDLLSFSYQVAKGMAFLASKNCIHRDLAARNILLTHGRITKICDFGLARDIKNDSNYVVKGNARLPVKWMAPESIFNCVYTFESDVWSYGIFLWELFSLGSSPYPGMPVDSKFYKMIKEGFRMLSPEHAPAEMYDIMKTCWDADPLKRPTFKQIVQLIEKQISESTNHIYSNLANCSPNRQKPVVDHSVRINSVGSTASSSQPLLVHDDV
Platelet-derived growth factor receptor beta (Homo sapiens), sequence (P09619 whole entry): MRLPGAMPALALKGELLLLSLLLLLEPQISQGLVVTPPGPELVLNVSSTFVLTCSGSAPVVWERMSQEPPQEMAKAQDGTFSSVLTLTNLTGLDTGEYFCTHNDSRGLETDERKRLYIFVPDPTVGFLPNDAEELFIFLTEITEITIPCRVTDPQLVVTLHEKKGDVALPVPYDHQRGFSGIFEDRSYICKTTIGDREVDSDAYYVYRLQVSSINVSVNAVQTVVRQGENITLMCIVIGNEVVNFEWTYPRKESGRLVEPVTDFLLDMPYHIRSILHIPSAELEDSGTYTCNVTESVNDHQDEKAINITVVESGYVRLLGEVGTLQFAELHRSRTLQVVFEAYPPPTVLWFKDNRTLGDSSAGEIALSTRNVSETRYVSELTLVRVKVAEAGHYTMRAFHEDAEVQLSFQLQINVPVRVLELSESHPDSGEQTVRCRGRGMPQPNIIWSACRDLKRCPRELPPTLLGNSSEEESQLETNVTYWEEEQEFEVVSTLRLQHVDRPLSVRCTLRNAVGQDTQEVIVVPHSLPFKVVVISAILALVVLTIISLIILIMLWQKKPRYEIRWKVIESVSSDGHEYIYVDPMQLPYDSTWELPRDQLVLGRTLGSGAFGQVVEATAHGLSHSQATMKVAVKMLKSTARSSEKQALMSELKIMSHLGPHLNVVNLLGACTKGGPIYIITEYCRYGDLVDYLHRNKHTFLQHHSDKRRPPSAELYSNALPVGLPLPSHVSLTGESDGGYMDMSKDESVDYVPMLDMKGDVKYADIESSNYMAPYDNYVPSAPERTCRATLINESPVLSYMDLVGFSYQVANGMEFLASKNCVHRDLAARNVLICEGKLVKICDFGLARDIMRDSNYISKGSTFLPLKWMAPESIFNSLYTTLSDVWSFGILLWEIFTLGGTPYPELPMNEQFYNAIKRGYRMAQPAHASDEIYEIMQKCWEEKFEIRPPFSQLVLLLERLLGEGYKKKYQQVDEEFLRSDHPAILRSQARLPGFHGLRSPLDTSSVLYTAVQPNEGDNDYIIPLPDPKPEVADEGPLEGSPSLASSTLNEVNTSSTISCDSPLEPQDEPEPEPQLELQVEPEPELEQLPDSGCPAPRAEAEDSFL
Tyrosine-protein kinase Fer (Homo sapiens), sequence (P16591 whole entry, looked up): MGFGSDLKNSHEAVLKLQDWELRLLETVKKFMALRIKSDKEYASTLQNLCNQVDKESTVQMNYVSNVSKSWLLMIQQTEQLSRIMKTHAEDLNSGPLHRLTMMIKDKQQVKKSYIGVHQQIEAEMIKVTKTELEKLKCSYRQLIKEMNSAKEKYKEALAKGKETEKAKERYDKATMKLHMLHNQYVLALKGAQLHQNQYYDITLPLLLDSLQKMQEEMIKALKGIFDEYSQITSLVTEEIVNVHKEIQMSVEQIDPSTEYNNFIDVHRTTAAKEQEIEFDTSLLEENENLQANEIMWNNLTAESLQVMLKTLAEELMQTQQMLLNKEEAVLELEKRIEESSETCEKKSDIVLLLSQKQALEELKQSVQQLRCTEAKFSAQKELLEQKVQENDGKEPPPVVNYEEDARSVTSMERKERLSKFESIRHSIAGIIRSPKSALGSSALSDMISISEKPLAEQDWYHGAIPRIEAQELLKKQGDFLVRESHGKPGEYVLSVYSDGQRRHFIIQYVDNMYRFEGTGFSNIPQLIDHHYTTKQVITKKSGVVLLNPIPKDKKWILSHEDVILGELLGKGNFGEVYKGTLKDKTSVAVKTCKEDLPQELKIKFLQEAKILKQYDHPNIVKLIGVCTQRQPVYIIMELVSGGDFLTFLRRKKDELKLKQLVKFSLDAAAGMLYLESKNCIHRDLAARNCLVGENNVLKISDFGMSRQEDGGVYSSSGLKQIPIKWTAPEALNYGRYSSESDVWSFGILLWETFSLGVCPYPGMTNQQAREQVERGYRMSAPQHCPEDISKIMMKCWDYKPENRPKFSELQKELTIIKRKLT

Compound: C=C(C)C(=O)NCc1ccc(C(=O)Nc2ccc(C)c(Nc3nccc(-c4cccnc4)n3)c2)cc1
- IC50 [1]: > 20 µM
- IC50 [2]: 2.74 µM

Compound: Cc1ccc(NC(=O)c2ccc(CN3CCN(C)CC3)cc2)cc1Nc1nccc(-c2cccnc2)n1
- Activity [3]: 0.8%
- Activity [4]: 7.2%
- Activity [5]: 5.1%
- Activity [6]: 8.8%
- Activity [7]: 5.2%
- Activity [8]: 91%
- Activity [9]: 97%
- Activity [10]: 99%
- Activity [11]: 78%
- Activity [12]: 85%

Compound: C/C=C/C(=O)NCc1ccc(C(=O)Nc2ccc(C)c(Nc3nccc(-c4cccnc4)n3)c2)cc1
- IC50 [1]: > 20 µM
- IC50 [2]: 4.71 µM

Further molecules by falling IC50 [2], results first:

- IC50 [1]: > 20 µM
- IC50 [2]: 0.788 µM
Compound: Cc1ccc(NC(=O)c2ccc(CN)cc2)cc1Nc1nccc(-c2cccnc2)n1

- Activity [13]: 0.45%
- Activity [14]: 4.6%
- Activity [15]: 1.9%
- Activity [16]: 0%
- Activity [17]: 0%
- Activity [18]: 7%
- Activity [19]: 64%
- Activity [20]: 76%
- Activity [21]: 100%
- Activity [22]: 100%
- Activity [23]: 0.7%
- Activity [24]: 0%
- IC50 [1]: > 20 µM
- IC50 [2]: 0.788 µM
- IC50 [25]: 1.08 µM
- Activity [26]: 100%
- Activity [27]: 5%
- Activity [28]: 95%
- Activity [29]: 100%
- Activity [30]: 100%
- Activity [31]: 92%
- Activity [32]: 100%
- Activity [33]: 100%
- Activity [34]: 86%
- Activity [35]: 81%
- Activity [36]: 100%
- Activity [37]: 100%
- Activity [38]: 0%
- Activity [39]: 0.7%
- Activity [40]: 0%
- Activity [41]: 64%
- Activity [42]: 49%
- Activity [43]: 69%
- Activity [44]: 4.6%
- Activity [45]: 100%
- Activity [46]: 100%
- Activity [47]: 5%
- Activity [48]: 0.5%
- Activity [49]: 31%
- Activity [50]: 100%
- Activity [51]: 100%
- Activity [52]: 18%
- Activity [53]: 68%
Compound: Cc1ccc(NC(=O)c2ccc(CNC(=O)CCl)cc2)cc1Nc1nccc(-c2cccnc2)n1

- IC50 [2]: 0.245 µM
Compound: Cc1ccc(NC(=O)c2ccc(CCl)cc2)cc1Nc1nccc(-c2cccnc2)n1
